Consider 8 molecules from publication PMC5018964, “Visualization and ligand-induced modulation of dopamine receptor dimerization at the single molecule level” (Scientific Reports, 2016).

One data set concerns the target T1, human D2S (Homo sapiens, UniProt P14416).
T1 construct: expressed in transfected cells
In words: [3H]spiperone competition/saturation binding, membranes of CHO cells expressing human D2S. The following applies: [³H]spiperone competition, CHO cell membranes; read-out: Ki ± s.d. hD2S.

Another data set addresses SNAP-D2L receptors (Homo sapiens, UniProt P14416+P16455, A127T/A154D/C150Q/C62A/E30R/G131K/G132T/G153L/K125A/K32I/L33F/M134L/N157G/Q115S/Q116H/R128A/R135S/S151G/S152D/S159E). In words: [3H]spiperone competition/saturation binding, membranes of CHO cells expressing SNAP-D2L.
The target in a further data set is T2, human D3 (Homo sapiens, UniProt P35462).
T2 construct: expressed in transfected cells
T2 sequence (P35462 whole entry): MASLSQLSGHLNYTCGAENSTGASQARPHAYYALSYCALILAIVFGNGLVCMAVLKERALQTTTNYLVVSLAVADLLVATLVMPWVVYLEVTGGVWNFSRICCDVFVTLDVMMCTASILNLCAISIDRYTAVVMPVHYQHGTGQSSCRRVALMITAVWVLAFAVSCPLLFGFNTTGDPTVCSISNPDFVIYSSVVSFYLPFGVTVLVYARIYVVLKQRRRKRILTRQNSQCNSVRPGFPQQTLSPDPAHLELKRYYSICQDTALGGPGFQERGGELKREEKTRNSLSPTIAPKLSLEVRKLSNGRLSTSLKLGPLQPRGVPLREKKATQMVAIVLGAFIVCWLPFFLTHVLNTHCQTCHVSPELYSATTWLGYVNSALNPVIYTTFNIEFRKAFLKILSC
In words: [3H]spiperone competition/saturation binding, membranes of CHO cells expressing human D3. The following applies: [³H]spiperone competition, CHO cell membranes; read-out: Ki ± s.d. hD3.

The target of another data set is T3, SNAP-D2L receptor (Homo sapiens, UniProt P14416).
T3 construct: expressed in transfected cells
In words: Single-molecule TIRF-M of SNAP-D2L receptors in CHO cells with ligands (dimerization, mobility, colocalization). The data set is classed as cell-based. The following applies: for effect on monomer/dimer ratio and mobility of the SNAP-D2L receptor compared to ligand-free conditions: Alexa546-labeled SNAP-D2L in CHO cells incubated with ligand; for Average Dlat 24°C (average lateral diffusion coefficient) / Density (spots µm-2) / fraction of dimers: SNAP-D2L in CHO cells; for Average Dlat 24°C (average lateral diffusion coefficient) / Density (spots µm-2): mean ± s.d.; for mean apparent colocalization lifetime τ of two receptors in a dimer: SNAP-D2L incubated with ligand, one-phase exponential decay fit, 120 trajectories, ligand free 0.46 s; for fraction of dimers: 10-fold Ki, ligand-free 30%. The method, then: 24 h before the TIRF-experiment dried and cleaned glass slides were placed in a 12 well plate and were coated by incubation with 20 μg ml^−1 fibronectin (Sigma–Aldrich) in sterile PBS for 1 h at 37 °C. After coating, fibronectin was aspirated and the glass surface was rinsed one time with sterile PBS. CHO cells expressing SNAP-D2L, SNAP-CD86, SNAP-CD28, D2L, D2S or D3 receptors were seeded on coated glass slides in phenol-red-free DMEM/F12 supplemented with 10% FCS and were allowed to adhere overnight at 37 °C and 5% CO2.
Subsequently, cells were washed three times with phenol red-free DMEM/F12 supplemented with 10% FBS, each time followed by 5 min incubation at 37 °C.
For the ligand treatment experiments, the indicated concentration of the corresponding ligand in phenol red-free DMEM/F12 supplemented with 10% FBS were added to stably transfected CHO cells, which were ready for imaging, for 1 h before imaging.
Subsequently after labeling, cells were washed three times with phenol red-free DMEM/F12 supplemented with 10% FBS. […] Finally the imaging chamber was refilled with fresh imaging buffer and mounted immediately on a microscope stage for TIRF-M imaging.
The microscope control and image acquisition were performed by the NIS Elements software (Nikon Instruments). To ensure homogenous illumination, only the central quarter of the chip (300 × 300 pixel) was used for imaging analysis.
The image analysis procedures have been described in detail previously. An automated single particle tracking (ASPT) algorithm[58] implemented in custom-written software, GMimPro (www.mashanov.uk), was used to identify and track individual fluorescent spots on sequential video frames. ASPT settings used were FWHM300nm, R5, L20, Q10 and C999. Output from this image analysis gave fluorophore centroid positions (with 25 nm precision), integrated fluorophore intensities, total fluorophore number and trajectory lifetime. Spatial trajectories and intensity trajectories (i.e. intensities vs. time) were then further analysed to determine: the lateral diffusion coefficient, Dlat, which was derived from averaged mean squared displacement (MSD) versus time interval (δt), the average fluorescent spot density (spot μm^−^2) and distribution across the cell membrane and the intensity distribution of individual fluorescent spots and intensity fluctuation with time as well as the lifetime of colocalization. The Dlat was measured for each cell separately and the average value (average Dlat, mean ± standard deviation (s.d.)) was calculated for an indicated number of cells. Slow-moving objects Dlat < 0.02 μm^2 s^−1 were excluded from the analysis and only cells with a mobile trajectory fraction (trajectories with a Dlat > 0.02 μm^2 s^−1) over 0.75 were used for further analysis. Intensity distributions of fluorescent spots identified over the first 10-frame time window of TIRF illumination were fitted with a sum of Gaussian distributions (with standard deviation proportional to square root of intensity level) using the PRISM routine. The ratio of the areas under the Gaussian curves was calculated to give the percentage of the underlying component. Unpaired two-tailed Student´s t-tests were used for statistical significance.

For another data set, the target named is T4, human D2L (Homo sapiens, UniProt P14416).
T4 construct: expressed in transfected cells
In words: [3H]spiperone competition/saturation binding, membranes of CHO cells expressing human D2L. The following applies: [³H]spiperone competition, CHO cell membranes; read-out: Ki ± s.d. hD2L.

Data set [1] has as its target T5, human dopamine D2L receptor (wild type, non-tagged) (human), P14416.
T5 chain: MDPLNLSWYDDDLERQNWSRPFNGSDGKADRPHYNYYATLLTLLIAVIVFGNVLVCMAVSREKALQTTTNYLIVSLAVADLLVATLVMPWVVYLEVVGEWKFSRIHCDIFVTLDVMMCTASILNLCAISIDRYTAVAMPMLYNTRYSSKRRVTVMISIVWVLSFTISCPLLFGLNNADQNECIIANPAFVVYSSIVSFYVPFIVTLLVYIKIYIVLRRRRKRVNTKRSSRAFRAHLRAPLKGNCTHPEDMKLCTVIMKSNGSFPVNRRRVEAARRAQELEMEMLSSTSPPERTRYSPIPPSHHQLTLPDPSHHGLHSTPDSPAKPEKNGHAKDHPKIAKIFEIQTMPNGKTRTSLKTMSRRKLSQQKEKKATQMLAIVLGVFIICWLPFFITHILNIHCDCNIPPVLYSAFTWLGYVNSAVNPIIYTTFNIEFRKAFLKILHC
In words: single-molecule TIRF microscopy (intensity distribution of fluorescent spots); receptors on living CHO cells labelled 1 h at 37 °C with a fluorescent (Cy3B) antagonist (1c, 4a or 4b) at 10-fold Ki; spots fitted with a mixed Gaussian model. The following applies: remark: other sources report otherwise.

Data set [2] addresses T5, human dopamine D2L receptor (wild type, …). In words: single-molecule TIRF microscopy (intensity distribution of fluorescent spots); receptors on living CHO cells labelled 1 h at room temperature with a fluorescent (Cy3B) agonist (5a or 5b) at 10-fold Ki; spots fitted with a mixed Gaussian model. The following applies: remark: other sources report otherwise.
Data set [3] deals with the molecule itself. In words: single-molecule TIRF microscopy (intensity distribution of fluorescent spots); receptors on living CHO cells labelled 1 h at 37 °C with a fluorescent (Cy3B) antagonist (1c, 4a or 4b) at 10-fold Ki; spots fitted with a mixed Gaussian model.
Where [4] appears, read: 10 x Ki value labeling concentration.
The mark [5] stands for this setting: 100 x Ki value labeling concentration.

Usually Ki stands for the dissociation constant of the complex between target and ligand, obtained from inhibition or displacement. Usually stoichiometry N stands for the number of molecules, sites or subunits per partner or assembly.

SNAP-D2L receptors, sequence (P16455+P14416 fused with the stated changes): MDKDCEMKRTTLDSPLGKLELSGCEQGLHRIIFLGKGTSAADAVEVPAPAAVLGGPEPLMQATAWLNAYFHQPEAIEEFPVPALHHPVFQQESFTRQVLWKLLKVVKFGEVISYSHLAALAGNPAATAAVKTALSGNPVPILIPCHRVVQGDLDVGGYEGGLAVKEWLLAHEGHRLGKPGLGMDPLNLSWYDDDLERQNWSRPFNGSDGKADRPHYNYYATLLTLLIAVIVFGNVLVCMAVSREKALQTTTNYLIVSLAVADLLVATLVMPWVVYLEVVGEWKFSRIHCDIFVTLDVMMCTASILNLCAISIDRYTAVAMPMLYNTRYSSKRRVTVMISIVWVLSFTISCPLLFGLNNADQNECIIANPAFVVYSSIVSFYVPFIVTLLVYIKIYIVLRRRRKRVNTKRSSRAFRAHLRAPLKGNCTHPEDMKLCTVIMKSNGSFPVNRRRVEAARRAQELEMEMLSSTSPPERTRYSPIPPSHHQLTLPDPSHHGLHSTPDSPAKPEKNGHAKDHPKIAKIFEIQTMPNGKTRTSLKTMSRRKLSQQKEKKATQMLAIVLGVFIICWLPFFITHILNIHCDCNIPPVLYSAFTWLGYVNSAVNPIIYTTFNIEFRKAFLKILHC

Consider `CCCCn1cc(CCCOc2ccc(CN3CCN(c4ccccc4OC)CC3)cc2OC)nn1` [1a], for which the Ki on human D2S was determined as 53 ± 37 nM; on SNAP-D2L receptors it was 280 ± 190 nM; on human D3, 615 ± 370 nM; on human D2L, 67 ± 33 nM. On SNAP-D2L receptor, the “effect on monomer/dimer ratio and mobility of the SNAP-D2L receptor compared to ligand-free conditions” value is “no effect”. In addition, the “Average Dlat 24°C (average lateral diffusion coefficient)” value (“Average Dlat 24°C” for short) at SNAP-D2L receptor (setting [4]) is on record as 0.087 ± 0.003 µm² s-1; at SNAP-D2L receptor (setting [5]), 0.083 ± 0.005 µm² s-1. For the same molecule, the results for the “Density (spots µm-2)” value on SNAP-D2L receptor (setting [4]) and at SNAP-D2L receptor (setting [5]) were 0.68 ± 0.04 spots µm-2 and 0.69 ± 0.03 spots µm-2, respectively. Further, the “mean apparent colocalization lifetime τ of two receptors in a dimer” value on SNAP-D2L receptor is on record as 0.42 s.
In the case of `CCCCn1cc(CCCOc2ccc(CN3CCN(c4ccccc4OC)CC3)cc2OCCCCN)nn1` [1b], the Ki at human D2S amounted to 18 ± 5.7 nM; on SNAP-D2L receptors it was 4.8 ± 0.28 nM; on human D3 it was 70 ± 24 nM; on human D2L, 15 ± 8 nM. Moreover, the “effect on monomer/dimer ratio and mobility of the SNAP-D2L receptor compared to ligand-free conditions” value on SNAP-D2L receptor was “no effect”. Moreover, the entries for the “Average Dlat 24°C” value on SNAP-D2L receptor (setting [4]) and at SNAP-D2L receptor (setting [5]) were 0.085± 0.004 µm² s-1 and 0.081 ± 0.006 µm² s-1, respectively. For the same molecule, the “Density (spots µm-2)” value at SNAP-D2L receptor (setting [4]) turned out to be 0.66 ± 0.04 spots µm-2; on SNAP-D2L receptor (setting [5]) it was 0.69 ± 0.04 spots µm-2.
As for `COc1cc(CN2CCN(c3ccccc3OC)CC2)ccc1OCCCc1cn(CCCCCCCCn2cc(CCCOc3ccc(CN4CCN(c5ccccc5OC)CC4)cc3OC)nn2)nn1` [2a], the Ki at human D2S was 41 ± 19 nM; on SNAP-D2L receptors, 20 ± 7.1 nM; at human D3, 84 ± 24 nM; on human D2L, 22 ± 6.7 nM. For the same molecule, on SNAP-D2L receptor, the fraction of dimers worked out at 66%. Moreover, the “Average Dlat 24°C” value on SNAP-D2L receptor (setting [4]) is reported as 0.074 ± 0.004 µm² s-1; on SNAP-D2L receptor (setting [5]), 0.075 ± 0.005 µm² s-1. The “Density (spots µm-2)” value on SNAP-D2L receptor (setting [4]) and on SNAP-D2L receptor (setting [5]) was 0.65 ± 0.04 spots µm-2 throughout. In addition, the “mean apparent colocalization lifetime τ of two receptors in a dimer” value on SNAP-D2L receptor is 1.16 s.
Regarding `COc1ccccc1N1CCN(Cc2ccc(OCCCc3cn(CCCCCCCCn4cc(CCCOc5ccc(CN6CCN(c7ccccc7OC)CC6)cc5OCCCCN)nn4)nn3)c(OCCCCN)c2)CC1` [2b], the Ki on human D2S amounted to 3 ± 0.92 nM; at SNAP-D2L receptors, 2.4 ± 1.1 nM; on human D3 it was 2.6 ± 0.64 nM; at human D2L it was 3 ± 0.29 nM. This molecule showed a fraction of dimers on SNAP-D2L receptor of 58%. Besides, the “Average Dlat 24°C” value is 0.075 ± 0.004 µm² s-1 on SNAP-D2L receptor (setting [4]) and 0.071 ± 0.05 µm² s-1 at SNAP-D2L receptor (setting [5]). The “Density (spots µm-2)” value on SNAP-D2L receptor (setting [4]) stood at 0.64 ± 0.04 spots µm-2; at SNAP-D2L receptor (setting [5]), 0.67 ± 0.02 spots µm-2.
As for `COc1cc(CN2CCN(C)CC2)ccc1OCCCc1cn(CCCCCCCCn2cc(CCCOc3ccc(CN4CCN(c5ccccc5OC)CC4)cc3OC)nn2)nn1` [3a], the Ki at human D2S was 7.3 ± 1.3 nM; on human D3 it was 220 ± 83 nM; at human D2L, 9.8 ± 9.8 nM. Moreover, the “Average Dlat 24°C” value on SNAP-D2L receptor (setting [4]) is recorded as 0.083 ± 0.004 µm² s-1. Further, on SNAP-D2L receptor (setting [4]), the “Density (spots µm-2)” value worked out at 0.67 ± 0.03 spots µm-2.
Consider `COc1cc(CN2CCN(c3ccccc3OC)CC2)ccc1OCCCc1cn(CCCCCCCCn2cc(CCCOc3ccc(CN4CCN(C5CCCCC5)CC4)cc3OC)nn2)nn1` [3b], for which the Ki at human D2S turned out to be 17 ± 8.1 nM; on human D3 it was 100 ± 33 nM; on human D2L, 19 ± 8.2 nM. Besides, the “Average Dlat 24°C” value at SNAP-D2L receptor (setting [4]) was determined as 0.083 ± 0.005 µm² s-1. The “Density (spots µm-2)” value on SNAP-D2L receptor (setting [4]) was determined as 0.68 ± 0.04 spots µm-2.

B1: human dopamine D2L receptor (wild type, non-tagged), P14416 1-443 (receptor)
chain: T5 chain
Consider B1, for which, in data set [1], the percent of fluorescent spots that are dimers, labelled with antagonist 1c came out at 29%; the percent of fluorescent spots that are dimers, labelled with antagonist 4a worked out at 30%; the percent of fluorescent spots that are dimers, labelled with antagonist 4b is 29%; the percent of fluorescent spots that are monomers, labelled with antagonist 1c came to 71%. For the same molecule, in data set [1], the percent of fluorescent spots that are monomers, labelled with antagonist 4a was found to be 70% and the stoichiometry N came out at 2. Further, in data set [2], the percent of fluorescent spots that are dimers, labelled with agonist 5a stood at 45% and the percent of fluorescent spots that are dimers, labelled with agonist 5b is 42%.

B2: human dopamine D2S receptor (receptor, UniProt P14416-2 1-414, looked up)
chain: MDPLNLSWYDDDLERQNWSRPFNGSDGKADRPHYNYYATLLTLLIAVIVFGNVLVCMAVSREKALQTTTNYLIVSLAVADLLVATLVMPWVVYLEVVGEWKFSRIHCDIFVTLDVMMCTASILNLCAISIDRYTAVAMPMLYNTRYSSKRRVTVMISIVWVLSFTISCPLLFGLNNADQNECIIANPAFVVYSSIVSFYVPFIVTLLVYIKIYIVLRRRRKRVNTKRSSRAFRAHLRAPLKEAARRAQELEMEMLSSTSPPERTRYSPIPPSHHQLTLPDPSHHGLHSTPDSPAKPEKNGHAKDHPKIAKIFEIQTMPNGKTRTSLKTMSRRKLSQQKEKKATQMLAIVLGVFIICWLPFFITHILNIHCDCNIPPVLYSAFTWLGYVNSAVNPIIYTTFNIEFRKAFLKILHC
notes: human dopamine D2S receptor (short form of the D2 receptor), non-tagged; source: CHO-K1, stably expressing, in the membrane of living cells
On to B2, for which the “stoichiometry N” value in data set [3] was found to be 2.
